Broadly, the melting point is the temperature of the solid-liquid transition. `COc1cc(CO)ccc1OCc1nc(-c2cccc(C#N)c2)oc1C` came in with a melting point of 113 to 115 °C.
As for `CC(=O)NC[C@H]1CN(c2ccc(N3CCC(n4nnc(N5CCOCC5)n4)CC3)c(F)c2)C(=O)O1`, the melting point is 210 to 214 °C.
For `CNC(=O)c1ccccc1Sc1ccc(F)cc1[N+](=O)[O-]` the value was 111 to 113 °C; for `CC(C)CNC(=O)COc1ccn2nc(-c3ccccc3)c(-c3ccc(=O)n(C(C)C)n3)c2c1`, 168 °C.
For `c1ccc(OCCNc2nc(Nc3cc(C4CC4)n[nH]3)c3ccccc3n2)cc1` the value was 203 °C; for `CSc1ncc(Oc2cnccc2C)c(=O)[nH]1`, 162 to 164 °C; for `O=C(O)C1=Cc2ccc(Cl)cc2OC1C(F)(F)F` (stereo not drawn), 175 to 178 °C.
With `Cn1ncnc1COc1nc2c(cc1C(C)(C)C)nnn2-c1c(F)cccc1F` the figure was 105 to 108 °C; with `CCC(CC)Nc1cc(C)nc(Oc2c(C)cc(C)cc2C)c1C(N)=O`, 85 to 88 °C; with `NC(=NO)c1ccc(-c2n[nH]c3c2Cc2ccccc2-3)cc1`, over 300 °C.
`NSc1ccc([N+](=O)[O-])cc1C(Cl)(Cl)Cl`: the melting point amounted to 105 °C.
With `O=C(O)c1ccc(-n2ccc3ccccc32)cc1` the figure was 222 to 224 °C; with `O=C(O)CN1C(=O)C(=Cc2ccc(OCCc3ccccc3)c(OCc3ccccc3)c2)SC1=S`, 198 to 201 °C; with `Oc1c(Cl)nc(-c2ccccc2)nc1Cl`, 138 to 140 °C.
The compound `Cc1nc(C)c(CO)c(-c2ccc(F)cc2)n1` had a melting point of 174 to 176 °C.
In the case of `CCOC(=O)CN1CCN(C2=Nc3ccccc3Cc3ccccc32)CC1`, the melting point fell in the range of 107 to 108 °C.
For `CNS(=O)(=O)CC(=O)c1cc(OC)ccc1N` the value was 117 to 118 °C.
With `O=C(c1c(F)cccc1F)N1COCN(c2ccc(S(=O)C(F)F)cc2F)C1=O` (stereo not drawn) the figure was 138 to 140 °C; with `CC1CCC(NC(=O)NS(=O)(=O)c2ccc(CCNC(=O)N3CCC(C)CC3=O)cc2)CC1` (stereo not drawn), 190 to 191 °C; with `O=C1CN2CCOC2(c2ccccc2Cl)c2cc([N+](=O)[O-])ccc2N1` (stereo not drawn), 201 to 203 °C.
The compound `Cc1nc2cc(-c3nn(C(C)c4oc5ccccc5c(=O)c4-c4cccc(F)c4)c4ncnc(N)c34)ccc2[nH]1` (stereo not drawn) came in with a melting point of 154 to 156 °C.
For `C[C@@H](S[C@H]1CO[C@H](c2ccc(C(=O)Nc3ccc(C#N)c4ccccc34)cc2)OC1)[C@](O)(Cn1cncn1)c1ccc(F)cc1F`, the melting point turned out to be 109 °C.
Compound `CC(C(=O)O)c1ccc2cc(OCC=C(Cl)Cl)ccc2c1` (stereo not drawn) had a melting point of 107 to 109 °C.
For `CCOc1ccc(C2=NN(Cc3ccc(C(=O)O)cc3)C(=O)[C@H]3CCCC[C@@H]23)cc1OCC` (relative stereo) the value was 152 to 154 °C; for `CC(C)C(=O)Nc1ccc(C(=O)Nc2ccccc2N)cc1`, 248 °C.
With `CCc1nc(-c2ccc(Cl)cc2)c(CCC(=O)O)o1` the figure was 160 to 161 °C; with `CCc1nc(=O)c(CCC(=O)O)c(C)n1Cc1ccc(-c2ccccc2-c2nnn[nH]2)cc1`, 317 to 322 °C; with `Cc1cnc2c(Br)cnn2c1-c1cccnc1`, 166 to 168 °C.
For `COC(=O)c1nc2nc(C(C)C)cc(O)n2n1` the value was 198 to 201 °C.
Take `CC(=O)Oc1c(C2CCN(CCCCNC(=O)c3ccc(NC(=O)c4ccc(Cl)cc4)cc3)CC2)ccc2c1CCCC2`: the melting point turned out to be 254 °C.
For `CC1(C)Cc2cc([N+](=O)[O-])cc(OCC3CO3)c2O1` (stereo not drawn) the value was 108 °C.
`CCOCc1nc2c(N)nc3cc(S(C)(=O)=O)ccc3c2n1CCCOC` displayed a melting point of 166 to 168 °C.
As to `CCCc1c[nH]nc1OCc1ccc2ccccc2n1`, the melting point was in the range of 94 to 95 °C.
With `O=C(O)Cc1ccc2c(c1)Cc1ccccc1CO2` the figure was 155 to 157 °C; with `C=CC(=O)Oc1ccc(-c2cccc(OC(=O)C=C)c2)cc1`, 63.6 °C; with `Cc1cc2ncn(Cc3ccc([N+](=O)[O-])cc3)c2cc1C`, 175 to 177 °C.
On to `CS(=O)(=O)C(Cl)=C(Cl)C#N`, for which the melting point was found to be 100 °C.
On to `CN(SN(C)C(=O)F)C(=O)F`, for which the melting point was in the range of 40 to 41 °C.
For `CCC(CC)c1ccc(Cl)c2nc3n(c12)CCCCN3c1ccc(SC)cc1C` the value was 113 to 115 °C; for `CCc1nc(C(=O)O)c(C(=O)O)[nH]1`, 265 to 268 °C.
With `CCCCCCCCCCCCCCCCNC(=O)c1cc(OCCSCC(=O)O)c2ccccc2c1O` the figure was 91 to 93 °C; with `COC(=O)c1cc2ccc(OCCc3ccccc3)cc2oc1=O`, 100 to 101 °C; with `COc1ccc(-c2cnc3cc4cnn(CC(=O)O)c4cc3n2)cc1F`, over 260 °C.
As for `O=C1CCCCCCCCCCC(=O)O1`, the melting point lay within 85 to 89 °C.
In turn, `CC(C)C(=O)CCC(C)C1CCC2C3CC=C4CC(O)CCC4(C)C3CCC12C` (stereo not drawn) registered a melting point of 135 to 136 °C.
For `CCN(CC)CC(C)N1c2ccccc2Sc2ccc(C(=S)NCCC(C)C)cc21` (racemic), the melting point worked out at 80 °C.
For `CCOC1(c2ccccc2)c2cc(Cl)ccc2NC(=O)N1c1ccccc1` (stereo not drawn) the value was 209 to 211 °C; for `O=c1ccccn1[C@@H]1c2ccccc2OCC[C@H]1O` (relative stereo), 232 to 234 °C.
`Cn1cc(C(O)(c2ccc3c(cnn3C(=O)c3ccccc3)c2)C(F)(F)F)c2ccccc21` (stereo not drawn) yielded a melting point of 102 to 103 °C.
In turn, `CCNc1c(SC(F)(F)F)c(C)nn1-c1c(Cl)cc(C(F)(F)F)cc1Cl` yielded a melting point of 53 to 54 °C.
In the case of `Cc1ccc(COc2ccn(Cc3ccccc3)c(=O)c2Br)cc1`, the melting point lay in the range of 149 to 150 °C.
With `CCOC(=O)CCC1NC(=O)CN1Cc1ccccc1` (stereo not drawn) the figure was 60 to 62 °C; with `CCOC(=O)/C=C/c1ccc(C=Cc2nc(-c3ccccc3)oc2C)cc1`, 161 to 162 °C; with `C[C@H]1C(=O)Nc2ccc(Cl)cc2N1C(=O)Cl`, 194 to 195 °C.
For `O=C(C1CCCCC1)N1CC(=O)N2CCOc3ccccc3C2C1` (stereo not drawn) the value was 92 to 93 °C.
`c1ccc(OCCSCc2nnc(-c3ccc(OCCCCN4CCCCCC4)cc3)o2)cc1`: the melting point was 35 to 38 °C.
With `NC(=O)/C=C1/c2cc(F)ccc2CC1Br` (stereo not drawn) the figure was 162 to 163 °C.
`CC(O)c1ccc2c(NCc3ccc(NC(=O)c4ccc(F)cc4)cc3)nc(N(C)C)nc2c1` (stereo not drawn) showed a melting point of 232 °C.
For `COC(=O)c1ccc(C(=O)/C=C/c2cc(-c3cc4ccccc4s3)c(OC)cc2OC)cc1` the value was 149 to 151 °C; for `CSc1cc(C)nc(SC)c1NC(=O)CN1CCN(CCO)CC1`, 119 to 120 °C; for `Cc1c2ccccc2c(-c2ccc(OS(C)(=O)=O)cc2)c2c1sc1ccccc12`, 172 to 173 °C.
In turn, `COC(=O)C(Cc1ccc(OC)c(C(=O)NCc2ccc(C(F)(F)F)cc2)c1)S(C)(=O)=O` (stereo not drawn) displayed a melting point of 144 to 145 °C.
For `CC(C)c1nn(-c2nnc(C(F)(F)F)s2)cc1CCCO` the value was 89 to 90 °C.

For the origin of these results see a melting point compilation (Tetko et al.; mined from patent text by program, amines drawn as free bases though some values may be those of a salt).
